Data from paper PMC6508934, “Structural basis for mammalian nucleotide sugar transport” (eLife, 2019).
Residue numbers refer to the chain shown, from its start. Several values for one entry are separate records, joined by “and”; a condition that tells them apart may be missing. Equal entries are not always repeated.

Tests used:
[1] = biological target: T1, mCST (W160L) (Mus musculus, UniProt Q61420, W160L); experiment: Intrinsic tryptophan fluorescence quenching assay
T1 sequence (Q61420 1-336 W160L): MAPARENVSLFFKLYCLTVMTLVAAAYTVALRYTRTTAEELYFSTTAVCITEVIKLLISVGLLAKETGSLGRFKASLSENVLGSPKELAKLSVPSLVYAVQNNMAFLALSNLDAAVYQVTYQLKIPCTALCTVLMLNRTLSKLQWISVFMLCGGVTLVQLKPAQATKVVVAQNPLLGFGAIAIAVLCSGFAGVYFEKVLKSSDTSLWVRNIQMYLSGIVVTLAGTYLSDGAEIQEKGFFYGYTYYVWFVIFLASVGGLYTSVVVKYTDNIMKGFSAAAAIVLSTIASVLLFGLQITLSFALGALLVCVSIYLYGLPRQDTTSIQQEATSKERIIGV

[2] = HPLC analysis of CMP-Sia hydrolysis in aqueous buffer; assay type: physicochemical; settings: AnP-treated CMP-Sia, AnP removed, pH 7.5 buffer, room temperature
[3] = biological target: T2, mCST (W145L) (Mus musculus, UniProt Q61420, W145L); experiment: SPA two-point CMP binding
T2 sequence (Q61420 1-336 W145L): T1 sequence (Q61420 1-336 W160L) with W145L, L160W

[4] = biological target: T1, mCST (W160L); experiment: SPA two-point CMP binding
[5] = biological target: T3, mCST (W247L) (Mus musculus, UniProt Q61420, W247L); experiment: Intrinsic tryptophan fluorescence quenching assay
T3 sequence (Q61420 1-336 W247L): T1 sequence (Q61420 1-336 W160L) with L160W, W247L

[6] = no reference given; cited from earlier work
[7] = biological target: T4, mCST∆C (Mus musculus, UniProt Q61420); experiment: Intrinsic tryptophan fluorescence quenching assay; assay type: binding; settings: fit of tryptophan fluorescence quenching, read-out: Kd (Trp-FL)
T4 construct: modifying the full-length construct using site-directed mutagenesis to remove the last 15 residues (322-336); made in house; host or cells: Pichia pastoris
T4 sequence (Q61420 1-321): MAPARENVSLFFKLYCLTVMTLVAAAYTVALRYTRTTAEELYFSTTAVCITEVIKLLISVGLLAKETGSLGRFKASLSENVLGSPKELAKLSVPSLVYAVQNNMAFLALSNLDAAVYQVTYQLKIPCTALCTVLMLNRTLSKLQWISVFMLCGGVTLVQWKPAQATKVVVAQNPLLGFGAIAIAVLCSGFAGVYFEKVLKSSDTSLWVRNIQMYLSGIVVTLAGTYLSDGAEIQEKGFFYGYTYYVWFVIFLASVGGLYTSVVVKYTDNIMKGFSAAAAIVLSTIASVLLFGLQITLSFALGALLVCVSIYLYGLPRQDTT

[8] = biological target: T5, mCST (W207F) (Mus musculus, UniProt Q61420, W207F); experiment: SPA two-point CMP binding
T5 sequence (Q61420 1-336 W207F): T1 sequence (Q61420 1-336 W160L) with L160W, W207F

[9] = biological target: T6, mCST (Mus musculus, UniProt Q61420); experiment: Scintillation proximity binding assay (SPA), displacement of 30 nM [3H]CMP; parameters: Full-length mCST cDNA was synthesized (Bio Basic) and subcloned into the Pichia pastoris expression vector pPICZ; made in house; host or cells: Pichia pastoris
T6 sequence (Q61420 1-336): T1 sequence (Q61420 1-336 W160L) with L160W
Experimental: Figure 1. Functional properties of mCST. (A) Purified, detergent-solubilized mCST was bound to SPA beads and the indicated compound was titrated against 30 nM [^3H]CMP to determine its affinity. Solid symbols denote titrations done with mCST and the open symbols are for mCST∆C. (B) Time course of 30 µM CMP-Sia uptake for purified mCST reconstituted into lipid vesicles with (black) or without (red) 300 µM CMP inside the vesicles. […] (C) The initial velocity of CMP-Sia uptake for either mCST (solid circles) or mCST∆C (open circles) reconstituted into CMP-filled vesicles is plotted as a function of substrate concentration to determine the Km and Vmax for transport. In all panels, the symbols show the mean ± standard error of the mean (SEM) for n = 2, except for the CMP titrations in (A), and the titration for mCST in (C) where n = 4. Figure 1—figure supplement 1. Description of SLC35 proteins. (A) Diagram of the nucleotide-sugar transporter (NST) transport cycle. Nucleotide sugars are first synthesized in the cytoplasm (or nucleus for CMP-Sia). They are then transported into the Golgi lumen by NSTs (blue box). A large family of glycosyltransferase enzymes transfers the sugar to a glycan acceptor, leaving behind the nucleotide monophosphate (NMP), which is then transported back to the cytoplasm by the NST. (B) A list of proteins in the SLC35 family with a known function and the associated nucleotide sugar(s) that they transport. SLC35B2 and SLC35B3 are listed for completeness even though they transport PAPS, the substrate used in sulfonation reactions inside the Golgi. In mammals, mannose (Man) is only present in the oligosaccharide precursor that is synthesized in the cytoplasm and then transported across the ER membrane, by a family of transporters distinct from NSTs, before being added to nascent polypeptides to form the base for N-linked glycans. […] (C) The structural formulas of the nucleotide phosphate (left) and sugar (right) moieties of nucleotide sugars are shown. The ‘‘~” symbol indicates the bond that links the two moieties. In mammals, two types of sialic acid may be transported into the Golgi: N-acetylneuraminic acid (Neu5Ac) or N-glycolylneuraminic acid (Neu5Gc). The ring atoms for the nucleobases and Neu5Ac and Gal are labeled. [drawing 1] Figure 1—figure supplement 2. Sequence alignment of mCST with other SLC35 and DMT proteins. The two letter prefix for each sequence name indicates the species as follows: mm: Mus musculus; hs: Homo sapiens; sc: Saccharomyces cerevisiae; sn: Starkeya novella; gs: Galdieria sulphuraria. […] The labeled yellow bars under the sequences indicate the extent of each TM. The interfacial alpha helix (IH) connecting TMs 2 and 3 is also indicated. [drawing 2] Figure 1—figure supplement 3.

[10] = biological target: T6, mCST; experiment: Intrinsic tryptophan fluorescence quenching assay
[11] = biological target: T4, mCST∆C; experiment: Scintillation proximity binding assay (SPA), displacement of 30 nM [3H]CMP; settings: full SPA titration against 30 nM [3H]CMP
Experimental: Figure 1. Functional properties of mCST. (A) Purified, detergent-solubilized mCST was bound to SPA beads and the indicated compound was titrated against 30 nM [^3H]CMP to determine its affinity. Solid symbols denote titrations done with mCST and the open symbols are for mCST∆C. (B) Time course of 30 µM CMP-Sia uptake for purified mCST reconstituted into lipid vesicles with (black) or without (red) 300 µM CMP inside the vesicles. […] (C) The initial velocity of CMP-Sia uptake for either mCST (solid circles) or mCST∆C (open circles) reconstituted into CMP-filled vesicles is plotted as a function of substrate concentration to determine the Km and Vmax for transport. In all panels, the symbols show the mean ± standard error of the mean (SEM) for n = 2, except for the CMP titrations in (A), and the titration for mCST in (C) where n = 4. Figure 1—figure supplement 1. Description of SLC35 proteins. (A) Diagram of the nucleotide-sugar transporter (NST) transport cycle. Nucleotide sugars are first synthesized in the cytoplasm (or nucleus for CMP-Sia). They are then transported into the Golgi lumen by NSTs (blue box). A large family of glycosyltransferase enzymes transfers the sugar to a glycan acceptor, leaving behind the nucleotide monophosphate (NMP), which is then transported back to the cytoplasm by the NST. (B) A list of proteins in the SLC35 family with a known function and the associated nucleotide sugar(s) that they transport. SLC35B2 and SLC35B3 are listed for completeness even though they transport PAPS, the substrate used in sulfonation reactions inside the Golgi. In mammals, mannose (Man) is only present in the oligosaccharide precursor that is synthesized in the cytoplasm and then transported across the ER membrane, by a family of transporters distinct from NSTs, before being added to nascent polypeptides to form the base for N-linked glycans. […] (C) The structural formulas of the nucleotide phosphate (left) and sugar (right) moieties of nucleotide sugars are shown. The ‘‘~” symbol indicates the bond that links the two moieties. […]

[12] = biological target: T2, mCST (W145L); experiment: Intrinsic tryptophan fluorescence quenching assay
[13] = biological target: T7, mCST (W207L) (Mus musculus, UniProt Q61420, W207L); experiment: SPA two-point CMP binding
T7 sequence (Q61420 1-336 W207L): T1 sequence (Q61420 1-336 W160L) with L160W, W207L

[14] = biological target: T3, mCST (W247L); experiment: SPA two-point CMP binding
[15] = tested on: mCST Trp207 mutants; experiment: Intrinsic tryptophan fluorescence quenching assay; settings: W207L and W207F mutants
[16] = tested on: CST; settings: cited from earlier work
[17] = tested on: UDP-GlcNAc transporter; parameters: method as in Waldman and Rudnick, 1990; settings: monoanionic UMP compared to dianionic UMP; ref Waldman and Rudnick, 1990; cited from earlier work

With `Nc1ccn([C@@H]2O[C@H](COP(=O)(O)O)[C@@H](O)[C@H]2O)c(=O)n1` [CMP, Cytidine 5'-monophosphate] the Kd [1] was 11.9 ± 2.4 µM, the “Rate of CMP generation from CMP-Sia hydrolysis” value [2] was 0.0051 ± 0.00014 %/min and 0.0051 %/min and the Kd [3] was 0.8 ± 0.3 µM. For the same compound, the Kd [4] was 1.6 ± 0.4 µM, the Kd [5] was 7.4 ± 2.6 µM and the “Highest pKa of the phosphate group” value [6] was 6.3. The Kd [7] was 11.1 ± 2.9 µM, the Kd [8] was 3.8 ± 1.5 µM and the “Fold higher affinity of CMP towards mCST than CMP-Sia” value ([9]; CMP versus CMP-Sia, Figure 1A) was ~ 100 fold. It also gave a Kd ([9]; crude estimation from two-point SPA data (30 nM [3H]CMP ± 5 µM unlabeled CMP), mCST, read-out: Kd (SPA 2-point)) of 5.5 ± 1.6 µM, a Kd ([9]; full SPA titration against 30 nM [3H]CMP, purified detergent-solubilized mCST, read-out: Kd (SPA titration)) of 6.3 ± 1.2 µM and a Kd [10] of 2.9 ± 1.1 µM. For the same compound, the “Quenching of intrinsic tryptophan fluorescence on CMP binding (in words)” value ([10]; wild-type mCST) was “significantly quenched”, the Kd [11] was 1.8 ± 0.4 µM and the Kd [12] was 3.3 ± 1 µM. The Kd [13] was 1.5 ± 0.4 µM, the Kd [14] was 2.4 ± 1.5 µM and the “Quenching of intrinsic tryptophan fluorescence by CMP (in words)” value [15] was “lack of any quenching”.
With `Nc1nc2c(ncn2[C@@H]2O[C@H](COP(=O)(O)O)[C@@H](O)[C@H]2O)c(=O)[nH]1` [GMP, Guanosine 5′-monophosphate] the Kd [11] was 5380 ± 1150 µM.
In the case of `CC(=O)N[C@H]1[C@H]([C@H](O)[C@H](O)CO)OC(O)(C(=O)O)C[C@@H]1O` (stereo partly drawn) [Sia, sialic acid], the “Competitive inhibition of CMP-Sia transport (in words)” value ([16]; ref Carey et al., 1980, Perez and Hirschberg, 1987) is given as “does not competitively inhibit CMP-Sia transport” and the “Binding to mCST (in words)” value ([9]; SPA titration, Figure 1A) is given as “does not bind mCST”.
For `O=c1ccn([C@@H]2O[C@H](COP(=O)(O)O)[C@@H](O)[C@H]2O)c(=O)[nH]1` [UMP, Uridine 5′-monophosphate], the “Fold higher Ki for inhibiting CMP-Sia transport (versus CMP)” value ([16]; ref Chiaramonte et al., 2001) is given as 20 fold, the “Substrate quality for UDP-GlcNAc transporter (in words)” value [17] is given as “poor substrate” and the Kd [11] is given as 1620 ± 1120 µM.
